{"source": "patent US20030180295A1", "about": "“Angiocidin: a Cys-Ser-Val-Thr-Cys-Gly specific tumor cell adhesion receptor” (Philadelphia Health and Education Corporation, priority 1999, published 2003)", "key": {"[1]": {"system": "Bovine aortic endothelial cells (BAEC)", "experiment": "Collagen matrix angiogenesis assay (microvessel formation)", "format": "cell-based", "conditions": "37 μg/ml, 24 hours", "protocol": "An experiment was performed to evaluate the effect of angiocidin on angiogenesis. Bovine aortic endothelial cells (BAEC) were plated on a collagen matrix. Next, the cells were over-layered with collagen. Angiocidin (37 μg/ml) was added on top of the cells in the treatment plate, and the control plate only received buffer. After 24 hours, phase contrast photomicrographs (200×) were taken. In the control plate, the BAEC cells rearranged themselves into a network of microvessels. […] This collagen assay is a well recognized model for angiogenesis. Qian et al., Thrombospondin-1 modulates angiogenesis in vitro by up-regulation of matrix metalloproteinase-9 in endothelial cells, Exp. Cell Res. 235:403-412 (1997)."}, "[2]": {"system": "human umbilical vein endothelial cells (HUVEC)", "experiment": "ALAMAR BLUE cell viability assay", "format": "cell-based", "conditions": "24 hours", "protocol": "(§1) Bovine aortic endothelial cells (BAEC), human umbilical vein endothelial cells (HUVEC), fibroblast cells, A549 human lung carcinoma cells (A549), MDA-MB231 human breast carcinoma cells (MB231), MCF7 human breast carcinoma cells (MCF7) were treated with 37 μg/ml of receptor, or buffer alone, for 24 hours. Viability of the cells was measured using the ALAMAR BLUE™ assay, which measures the capacity of cells to metabolize the ALAMAR BLUE™ dye. The ALAMAR BLUE™ assay (available from Biosource International, Camarillo, Calif.) quantitatively measures the proliferation of cell lines and can establish the relative cytotoxicity of chemical agents. The assay incorporates a fluorometric/colorimetric growth indicator based on detection of metabolic activity. The system incorporates an oxidation-reduction (redox) indicator that both fluoresces and changes color in response to chemical reduction of growth medium resulting from cell growth. This causes the redox indicator to change from its oxidized, non-fluorescent, blue form to its reduced, fluorescent, red form. Data can be collected using either fluorescence-based instrumentation (530-560 nm excitation wavelength and 590 nm emission wavelength) or absorbance-based instrumentation (570 nm and 600 nm).\nSimilarly, the effect of receptor on viability of BAEC cells was compared to mouse Lewis lung carcinoma cells, using the same method.\nThe effect of angiocidin on HUVEC cell viability was evaluated, and FGF and TSP-1 were added to determine whether they ameliorated the angiocidin effect on cell viability. FGF (Fibroblast Growth Factor) is an endothelial cell mitogen, which promotes cell growth. […] TSP-1 was expected to reverse the inhibition of angiocidin; however, quantities added may have been insufficient to provide the correct molar ratio."}, "[3]": {"system": "A549 human lung carcinoma cells (A549)", "experiment": "ALAMAR BLUE cell viability assay", "format": "cell-based", "conditions": "37 μg/ml, 24 hours", "protocol": "as §1"}, "[4]": {"system": "MCF7 human breast carcinoma cells (MCF7)", "experiment": "ALAMAR BLUE cell viability assay", "format": "cell-based", "conditions": "37 μg/ml, 24 hours", "protocol": "as §1"}, "[5]": {"system": "MDA-MB231 human breast carcinoma cells (MB231)", "experiment": "ALAMAR BLUE cell viability assay", "format": "cell-based", "conditions": "37 μg/ml, 24 hours", "protocol": "as §1"}, "[6]": {"system": "fibroblast cells", "experiment": "ALAMAR BLUE cell viability assay", "format": "cell-based", "conditions": "37 μg/ml, 24 hours", "protocol": "as §1"}, "[7]": {"system": "mouse Lewis lung carcinoma cells", "experiment": "ALAMAR BLUE cell viability assay", "format": "cell-based", "conditions": "0 to 37 μg/ml, 24 hours", "protocol": "as §1, with “This causes the redox indicator to change from its oxidized, non-fluorescent, blue form to its reduced, fluorescent, red form.” left out\nBAEC and BSM cells were treated with increasing concentrations of angiocidin (0, 0.625, 1.25, 2.5, 5, 15, 26 and 37 μg/ml) for 24 hours. Cell viability was measured using the ALAMAR BLUE Tm assay. […]"}, "[8]": {"system": "MDA-MB-435 Breast Carcinoma Cells", "experiment": "Cell adhesion to immobilized recombinant receptor", "format": "cell-based", "protocol": "For the adhesion assay, in a 96 well plate, duplicate wells were covered with either TSP-1 (40 μg/ml), fibronectin (40 μg/ml), or and 1% bovine serum albumin (BSA). The wells were dried out overnight and then blocked with BSA. 100 μl of a suspension containing 2×10^5 cells were plated in the protein covered wells and incubated at 37^□ C. for 20 minutes to 1 hour. The non-adherent cells were removed and the wells were washed with a Hepes buffer. The adherent cells were fixed with 2.5% glutaraldehyde for 10 minutes and stained with 0.2% Giemsa. The stain was washed off and the cells were counted in a field of 1 mm square. Cells adhering to BSA were considered background while cells adhering to fibronectin were the positive control.\nThe method of Example 12 was followed except the whole receptor protein was immobilized on the plates, and cells transfected with either TSP-1 cDNA or a vector control were applied to the plates. The cells, which naturally express a low level of TSP-1, were transfected to over express the protein. […] Fibronectin and BSA were used as positive and negative controls, respectively, for cell adhesion. This evidence bolsters the theory that the receptor of the present invention binds to thrombospondin.\nThis specific interaction was confirmed by adding anti-TSP-1 antibodies, Anti-Cys-Ser-Val-Cys-Thr-Gly (SEQ ID NO: 1), and control IgG to the system."}, "[9]": {"system": "Lewis lung carcinoma", "experiment": "Survival of mice bearing Lewis lung carcinoma (IV injected cells)", "format": "in vivo", "conditions": "50 μg IV on days 1, 3, 5, 7, 9", "protocol": "Ten mice were injected with one million Lewis lung carcinoma tumor cells in an IV injection. After 3 days of incubation, the mice were divided into two groups. One group of five mice were treated with an IV injection of 50 μg of angiocidin in Hepes buffered saline. The control group of five mice was treated with Hepes buffered saline. Mice were treated on days 1, 3, 5, 7, and 9."}}}
{"substance": "angiocidin: Cys-Ser-Val-Thr-Cys-Gly (SEQ ID NO: 1)-specific thrombospondin (TSP-1) receptor protein; recombinant form of SEQ ID NO: 2 used in the Examples", "values": [{"measurement": "microvessel formation", "setting": "[1]", "result": "the microvessels did not form and the cells appeared dead"}, {"measurement": "cell viability", "setting": "[2]; 0 to 37 μg/ml", "result": "decreasing their viability"}, {"measurement": "decrease of cell viability", "setting": "[2]; 37 μg/ml", "result": "70-80%"}, {"measurement": "cell viability", "setting": "[3]", "result": "No significant difference"}, {"measurement": "cell viability", "setting": "[4]", "result": "No significant difference"}, {"measurement": "cell viability", "setting": "[5]", "result": "No significant difference"}, {"measurement": "cell viability", "setting": "[6]", "result": "No significant difference"}, {"measurement": "cell viability", "setting": "[7]", "result": "does not affect the Lewis lung cells"}, {"measurement": "inhibition of cell adhesion to receptor bound to the plate by unbound receptor", "setting": "[8]; nontransfected, naturally TSP-1 expressing cells, FIG. 17", "result": "reduced the adhesion of the cells to the plate"}, {"measurement": "adhesion of TSP-1 cDNA transfected cells to plates with receptor protein relative to control cell line", "setting": "[8]; p<0.001", "result": 2.5, "unit": "times"}, {"measurement": "median survival period", "setting": "[9]", "result": 19, "unit": "days"}]}
